Measurements as given in PubChem BioAssay (NCI).
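Each compound was tested at five concentrations against cells in 96-well plates for 48 hours. At the TGI there is no net growth.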

How the values were obtained:
Assay in all cases: growth of human tumour cells (NCI), 48 h
[1] = tested on: SNB-78 CNS
[2] = tested on: NCI-H226 lung
[3] = tested on: M19-MEL melanoma
[4] = tested on: ACHN renal
[5] = tested on: 786-0 renal
[6] = tested on: SW-620 colon
[7] = tested on: UO-31 renal
[8] = tested on: HOP-62 NSCLC
[9] = tested on: K-562 leukemia
[10] = tested on: HOP-92 NSCLC
[11] = tested on: UACC-257 melanoma
[12] = tested on: U251 CNS
[13] = tested on: SF-268 CNS
[14] = tested on: HCT-116 colon
[15] = tested on: OVCAR-8 ovarian
[16] = tested on: IGROV1 ovarian
[17] = tested on: COLO 205 colon
[18] = tested on: SK-MEL-28 melanoma
[19] = tested on: DMS 114 small cell lung
[20] = tested on: SNB-75 CNS
[21] = tested on: NCI-H460 lung
[22] = tested on: XF 498 CNS
[23] = tested on: KM12 colon
[24] = tested on: HL-60(TB) leukemia
[25] = tested on: HCC-2998 colon
[26] = tested on: EKVX NSCLC
[27] = tested on: NCI-H23 lung
[28] = tested on: OVCAR-4 ovarian
[29] = tested on: SF-539 CNS
[30] = tested on: TK-10 renal
[31] = tested on: LOX IMVI melanoma
[32] = tested on: A549 NSCLC
[33] = tested on: SN12C renal
[34] = tested on: MOLT-4 leukemia
[35] = tested on: SK-MEL-5 melanoma
[36] = tested on: KM20L2 colon
[37] = tested on: HT29 colon
[38] = tested on: HOP-18 NSCLC
[39] = tested on: RXF-631 renal
[40] = tested on: SK-MEL-2 melanoma
[41] = tested on: A498 renal
[42] = tested on: DLD-1 colon
[43] = tested on: RPMI-8226 leukemia
[44] = tested on: OVCAR-3 ovarian
[45] = tested on: OVCAR-5 ovarian
[46] = tested on: SK-OV-3 ovarian
[47] = tested on: UACC-62 melanoma
[48] = tested on: LXFL 529 NSCLC
[49] = tested on: M14 melanoma
[50] = tested on: NCI-H522 lung
[51] = tested on: MALME-3M melanoma
[52] = tested on: CAKI-1 renal
[53] = tested on: CCRF-CEM leukemia
[54] = tested on: HCT-15 colon
[55] = tested on: SNB-19 CNS
[56] = tested on: RXF 393 renal
[57] = tested on: DMS 273 small cell lung
[58] = tested on: SR leukemia
[59] = tested on: SF-295 CNS

For `NC(=O)C(=O)CC(=O)c1ccccc1NC1=CC(=O)C(=O)c2ccccc21`, the TGI [1] was over 100 µM, the TGI [2] was over 100 µM and the TGI [3] was 22.8 µM. For the same compound, the TGI [4] was over 100 µM, the TGI [5] was over 100 µM and the TGI [6] was over 100 µM. For the same compound, the TGI [7] was over 100 µM, the TGI [8] was over 100 µM and the TGI [9] was over 100 µM. For the same compound, the TGI [10] was over 81.2 µM, the TGI [11] was over 75.7 µM and the TGI [12] was over 100 µM. For the same compound, the TGI [13] was over 85.7 µM, the TGI [14] was over 100 µM and the TGI [15] was over 100 µM. For the same compound, the TGI [16] was over 100 µM, the TGI [17] was over 100 µM and the TGI [18] was over 100 µM. For the same compound, the TGI [19] was 68.2 µM, the TGI [20] was over 100 µM and the TGI [21] was over 100 µM. It also gave a TGI [22] of over 100 µM, a TGI [23] of over 100 µM and a TGI [24] of over 76.6 µM. For the same compound, the TGI [25] was over 100 µM, the TGI [26] was over 100 µM and the TGI [27] was over 100 µM. The TGI [28] was over 100 µM, the TGI [29] was over 100 µM and the TGI [30] was over 100 µM. For the same compound, the TGI [31] was 36.1 µM, the TGI [32] was over 100 µM and the TGI [33] was over 100 µM. For the same compound, the TGI [34] was over 100 µM, the TGI [35] was over 55.1 µM and the TGI [36] was over 100 µM. It also gave a TGI [37] of over 100 µM, a TGI [38] of over 100 µM and a TGI [39] of over 100 µM. It also gave a TGI [40] of over 100 µM, a TGI [41] of over 100 µM and a TGI [42] of over 100 µM. For the same compound, the TGI [43] was over 100 µM, the TGI [44] was over 100 µM and the TGI [45] was over 100 µM. The TGI [46] was over 100 µM, the TGI [47] was over 72.4 µM and the TGI [48] was over 100 µM. The TGI [49] was over 100 µM, the TGI [50] was over 100 µM and the TGI [51] was over 59 µM. The TGI [52] was over 100 µM, the TGI [53] was over 100 µM and the TGI [54] was over 100 µM. The TGI [55] was over 100 µM, the TGI [56] was over 100 µM and the TGI [57] was over 100 µM.
In the case of `O=C1NCCS(=O)(=O)N[C@@H](CC2=CC=CCC2)C(=O)N2CCCC12` (stereo not given in full), the TGI [1] is reported as over 100 µM, the TGI [2] is reported as over 100 µM and the TGI [3] is reported as over 100 µM. For the same compound, the TGI [4] was over 100 µM, the TGI [5] was over 100 µM and the TGI [6] was over 100 µM. It also gave a TGI [58] of over 100 µM, a TGI [7] of over 100 µM and a TGI [8] of over 100 µM. For the same compound, the TGI [9] was over 100 µM, the TGI [10] was over 100 µM and the TGI [11] was over 100 µM. For the same compound, the TGI [12] was over 100 µM, the TGI [13] was over 100 µM and the TGI [14] was over 100 µM. For the same compound, the TGI [15] was over 100 µM, the TGI [16] was over 100 µM and the TGI [17] was over 100 µM. For the same compound, the TGI [18] was over 100 µM, the TGI [19] was over 100 µM and the TGI [20] was over 100 µM. The TGI [21] was over 100 µM, the TGI [22] was over 100 µM and the TGI [23] was over 100 µM. For the same compound, the TGI [24] was over 100 µM, the TGI [25] was over 100 µM and the TGI [26] was over 100 µM. It also gave a TGI [27] of over 100 µM, a TGI [59] of over 100 µM and a TGI [28] of over 100 µM. The TGI [29] was over 100 µM, the TGI [30] was over 100 µM and the TGI [31] was over 100 µM. The TGI [32] was over 100 µM, the TGI [33] was over 100 µM and the TGI [34] was over 100 µM. It also gave a TGI [35] of over 100 µM, a TGI [36] of over 100 µM and a TGI [37] of over 100 µM. The TGI [38] was over 100 µM, the TGI [39] was over 100 µM and the TGI [40] was over 100 µM. It also gave a TGI [41] of over 100 µM, a TGI [42] of over 100 µM and a TGI [43] of over 100 µM. It also gave a TGI [44] of over 100 µM, a TGI [45] of over 100 µM and a TGI [46] of over 100 µM. The TGI [47] was over 100 µM, the TGI [48] was over 100 µM and the TGI [49] was over 100 µM. The TGI [50] was over 100 µM, the TGI [51] was over 100 µM and the TGI [53] was over 100 µM. For the same compound, the TGI [54] was over 100 µM, the TGI [55] was over 100 µM and the TGI [56] was over 100 µM. The TGI [57] was over 100 µM.
